Test results from patent publication US9133225B2, “Dual targeting anticancer agents” (priority 2013, dated 2015).

Tests used:
[1] = system: A2780 ovarian cancer cells; assay: PI-annexin-V dual staining apoptosis assay; assay type: cell-based; details: 10 μM for 48 hours
Bcl-xL-Bax interactions = molecular target: T1, Bcl-xL-Bax interactions (Homo sapiens, UniProt Q07817); assay: Co-immunoprecipitation of Bcl-xL, probed for Bax; assay type: cell-based; details: A549 cells, respective IC50 values, 48 h
T1 construct: endogenous in cells; host or cells: A549
Description: (§1) α-TOS is known to disrupt Bcl-xL-Bax interactions, activate Bax, and thus mediate mitochondrial centered apoptotic cell death. Co-immunoprecipitation studies were carried out to determine whether the Pt(IV)-α-TOS conjugates could behave in a similar manner. […] Additional immunoblotting studies were carried to determine the effect of Pt(IV)(α-TOS)(OEt) treatment on transcription. […] Overall Pt(IV)(α-TOS)(OEt) was able to (1) downregulate Bcl-xL expression and (2) inhibit the interaction of Bcl-xL with Bax, a prerequisite for mitochondrial dysfunction. The former is inherent to cisplatin but not α-TOS, and the latter was inherent to α-TOS but not cisplatin.
A549 cells (5×10^5 cells) were incubated with test compound for 48 h at 37° C. […] The resultant cell lysate was treated with protein A-agarose bead slurry (50 μL) and centrifuged to remove proteins that bind non-specifically. Anti Bcl-XL antibody (Cell Signalling Technology) was added to the lysate and incubated for 2 h at room temperature. Protein A-agarose bead slurry (50 μL) was added and the mixture was incubated at 4° C. overnight. Centrifugation allowed separation of the immunocomplex, which was washed with cold RIPA buffer (3×500 μL). The immunocomplex was then suspended in SDS-PAGE loading buffer (50 μL) and incubated at 95° C. for 10 min. The solution containing the immunocomplex was isolated by centrifugation and then analysed for Bax content using the immunoblotting analysis protocol described above.

Bcl-xL = assay: Immunoblotting analysis of Bcl-xL expression; assay type: cell-based; details: A549 cells
Description: as §1
A549 cells (5×10^5 cells) were incubated with test compound for 48 h at 37° C. Cells were washed with PBS, scraped into SDS-PAGE loading buffer (64 mM Tris-HCl (pH6.8)/9.6% glycerol/2% SDS/5% β-mercaptoethanol/0.01% Bromophenol Blue) and incubated at 95° C. for 10 min. Whole cell lysates were resolved by 4-20% sodium dodecylsulphate polyacylamide gel electrophoresis (SDS-PAGE; 200 V for 1 h) followed by electro transfer to polyvinylidene difluoride membrane, PVDF (350 mA for 1 h). Membranes were blocked in 5% (w/v) non-fat milk in PBST (PBS/0.1% Tween 20) and incubated with the appropriate primary antibodies (Cell Signalling Technology and Santa Cruz). After incubation with horseradish peroxidase-conjugated secondary antibodies (Cell Signalling Technology), immune complexes were detected with the ECL detection reagent (BioRad) and analysed using an Alpha Innotech ChemiImager™ 5500 fitted with a chemiluminescence filter.

HeLa cells = assay: MTT cytotoxicity assay, HeLa
Source text: (§2) (a) Dulbecco's Modified Eagle Medium (DMEM), Dulbecco's phosphate buffered saline (DPBS), fetal bovine serum (FBS) and 0.25% trypsin/EDTA solutions were purchased from Cellgro (Manassas, Va.). Penicillin-streptomycin solutions were purchased from Mediatech (Manassas, Va.). (b) HeLa (CCL-2TM) cells, A549, A2870, A2870/CP70, MCF-7, PC-3, and MRC-5 cells were purchased from American Type Culture Collection (ATCC, Manassas, Va., USA). (c) HCT116 cells were kindly donated by Laura Trudel (MIT). HeLa, A549, MCF-7, and MRC-5 cells were cultured using DMEM supplemented with 10% FBS and 1% penicillin-streptomycin. A2870, A2870/CP70, and PC-3 cells were cultured in RPMI supplemented with 10% FBS and 1% penicillin-streptomycin. HCT116 cells were cultured in McCoy's supplemented with 10% FBS and 1% penicillin-streptomycin. All cell-culture experiments were performed in the aforementioned media in an incubator operating at 37° C. and in the presence of a humidified atmosphere containing 5.0% CO2. Cells were harvested using a 0.25% trypsin/EDTA solution.
(§3) The cytotoxicity of the compounds was assessed by means of the MTT assay (MTT=3-(4,5-dimethyl-2-thiazolyl)-2,5-diphenyl-2H-tetrazolium bromide). Typically, on day one, ˜1×10^3 cells were seeded into 96-well plates in 100 μL media per well. […] The optical density for each well at 550 nm was measured with a microplate reader.

MCF-7 cells = assay: MTT cytotoxicity assay, MCF-7
Source text: as §2
(§4) The cytotoxicity of the compounds was assessed by means of the MTT assay (MTT=3-(4,5-dimethyl-2-thiazolyl)-2,5-diphenyl-2H-tetrazolium bromide). Typically, on day one, ˜1×10^3 cells were seeded into 96-well plates in 100 μL media per well. The last row of the plate was left empty as a control for background absorption. The cells were allowed to grow for 24 h in the incubator at 37° C. On day two, a series of drug dilutions in growth media were prepared immediately prior to cell treatment. The media in the wells of the 96 plates were replaced with 100 μL of growth media containing appropriate drug concentrations. The cells were treated for 48 h at 37° C. in the incubator. On day four, a stock solution of MTT (5 mg/mL in PBS buffer) was diluted with media so that, when 100 μL of the media was added to each well, 10 μL of MTT stock was applied. […] The optical density for each well at 550 nm was measured with a microplate reader.

[2] = system: A2780/CP70 cells (CisPt resistant); assay: MTT cytotoxicity assay, A2780/CP70
Source text: as §2, §3

HCT116 cells = assay: MTT cytotoxicity assay, HCT116
Source text: as §2, §4

[3] = system: MRC-5 non-tumorigenic lung fibroblast cells; assay: in vitro
Source text: as §2
(§5) The cytotoxicity of the compounds was assessed by means of the MTT assay (MTT=3-(4,5-dimethyl-2-thiazolyl)-2,5-diphenyl-2H-tetrazolium bromide). Typically, on day one, ˜1×10^3 cells were seeded into 96-well plates in 100 μL media per well. The last row of the plate was left empty as a control for background absorption. The cells were allowed to grow for 24 h in the incubator at 37° C. On day two, a series of drug dilutions in growth media were prepared immediately prior to cell treatment. The media in the wells of the 96 plates were replaced with 100 μL of growth media containing appropriate drug concentrations. The cells were treated for 48 h at 37° C. in the incubator. On day four, a stock solution of MTT (5 mg/mL in PBS buffer) was diluted with media so that, when 100 μL of the media was added to each well, 10 μL of MTT stock was applied. The cells were incubated for 2 h and then all the media was replaced with 100 μL of DMSO to dissolve the purple MTT-formazan crystals. The optical density for each well at 550 nm was measured with a microplate reader.

A549 cells [4] = assay: MTT cytotoxicity assay, A549
Source text: as §2, §3

PC-3 cells = assay: MTT cytotoxicity assay, PC-3
Source text: as §2, §4

[5] = system: A2780 ovarian carcinoma cells; assay: MTT cytotoxicity assay, A2780
Source text: as §2, §3

A549 cells [6] = assay: JC-1 mitochondrial membrane potential assay; assay type: cell-based; details: cisplatin or Pt(IV)(α-TOS)(OEt) at 20 μM, 4 hours
Description: To investigate the effect of Pt(IV)(α-TOS)(OEt) on mitochondria, changes in the mitochondrial membrane potential were assessed by the JC-1 assay. JC-1 (5,5′,6,6′-tetrachloro-1,1′3,3′-tetraethylbenzimidazolylcarbocyanine iodide) is a positively charged lipophilic dye, which accumulates in the mitochondria of healthy cells as red-emitting aggregates. When the mitochondrial membrane is compromised, JC-1 de-aggregates into monomeric forms that emit green fluorescence. […] These findings were confirmed using flow cytometry. A large population of untreated and Pt(IV)(α-TOS)(OEt)-treated A549 cells were examined.
In order to monitor the cell cycle, flow cytometry studies were carried out. A549 cells were incubated with and without the test compounds for 24 and 48 h at 37° C. Cells were harvested from adherent cultures by trypsinization and combined with all detached cells from the incubation medium to assess total cell viability. Following centrifugation at 1000 rpm for 5 min, cells were washed with PBS and then fixed with 70% ethanol in PBS. Fixed cells were collected by centrifugation at 2500 rpm for 3 min, washed with PBS and centrifuged as before. Cellular pellets were re-suspended in 50 μg/mL propidium iodide (Sigma) in PBS for nucleic acids staining and treated with 100 μg/mL RNaseA (Sigma). DNA content was measured on a FACSCalibur-HTS flow cytometer (BD Biosciences) using laser excitation at 488 nm and 20,000 events per sample were acquired. Cell cycle profiles were analysed using the ModFit software. For the apoptosis experiments, the Annexin V-FITC Early Apoptosis Detection Kit (Cell Signaling Technology) was used. […] The samples were kept on ice prior to being read on the FACSCalibur-HTS flow cytometer (BD Biosciences) (20,000 events per sample were acquired). Cell populations were analysed using the FlowJo software (Tree Star). […] The cells were incubated for 30 min, harvested, and analysed by using the FACSCalibur-HTS flow cytometer (BD Biosciences) (20,000 events per sample were acquired). […] Cell populations were analysed using the FlowJo software (Tree Star).

all cell lines = assay: MTT cytotoxicity assay, across the cell lines; assay type: cell-based; details: all cell lines; MTT; read-out: IC50 against all cell lines
Source text: as §2, §3

in vitro = details: human
Source text: as §2, §5

T1 sequence (Q07817 whole entry): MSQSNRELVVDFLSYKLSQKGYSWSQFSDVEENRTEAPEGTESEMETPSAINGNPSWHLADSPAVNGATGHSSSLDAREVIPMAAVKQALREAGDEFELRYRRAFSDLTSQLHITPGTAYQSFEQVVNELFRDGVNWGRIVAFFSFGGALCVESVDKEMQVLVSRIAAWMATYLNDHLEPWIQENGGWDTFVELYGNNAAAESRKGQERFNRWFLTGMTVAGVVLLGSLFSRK

In the case of `N.N.[Cl][Pt][Cl]` [cisplatin, reference compound], the “cells displaying apoptotic properties” value [1] is reported as 10%, the “Bcl-xL-Bax interaction (Bax associated to the Bcl-xL immunoprecipitate)” value (“Bcl-xL-Bax interaction” for short) (Bcl-xL-Bax interactions) is reported as “less affected” and the Bcl-xL expression (Bcl-xL) is reported as “A similar trend was observed”.

With `Cc1c(C)c2c(c(C)c1OC(=O)CCC(=O)O)CC[C@@](C)(CCC[C@H](C)CCC[C@H](C)CCCC(C)C)O2` [α-TOS, α-tocopherol succinate, reference compound] the IC50 (HeLa cells) was 25.1 µM, the IC50 (MCF-7 cells) was 40.5 µM and the IC50 [2] was 21.7 µM. The IC50 (HCT116 cells) was 31.2 µM, the IC50 [3] was 28.5 µM and the IC50 (A549 cells [4]) was 26.9 µM. For the same compound, the IC50 (PC-3 cells) was 37 µM, the “Bcl-xL-Bax interaction” value (Bcl-xL-Bax interactions) was “markedly lower than the untreated control” and the IC50 [5] was 13.8 µM.

For `N#CC(C#N)=NNc1cccc(Cl)c1` [CCCP, carbonyl cyanide m-chlorophenyl hydrazone, reference compound], the “JC-1 fluorescence (mitochondrial membrane disruption), microscopy” value (A549 cells [6]) was “increased green fluorescence and diminished red fluorescence”.

`CC(=O)[O][Pt]([NH2])([NH2])([Cl])([Cl])[O]C(C)=O` [Pt(IV)(OAc)2] showed an IC50 (MCF-7 cells) greater than 100 µM, an IC50 (HCT116 cells) greater than 100 µM and an IC50 (all cell lines) greater than 100 µM. The IC50 [3] was greater than 100 µM, the IC50 (PC-3 cells) was greater than 100 µM and the “Bcl-xL-Bax interaction” value (Bcl-xL-Bax interactions) was “less affected”. For the same compound, the Bcl-xL expression (Bcl-xL) was “A similar trend was observed”.

For `Cc1c(C)c2c(c(C)c1OC(=O)CCC(=O)[O][Pt]([NH2])([NH2])([Cl])([Cl])[O]C(=O)CCC(=O)Oc1c(C)c(C)c3c(c1C)CCC(C)(CCCC(C)CCCC(C)CCCC(C)C)O3)CCC(C)(CCCC(C)CCCC(C)CCCC(C)C)O2` (stereo not drawn) [Pt(IV)(α-TOS)2], the IC50 at 48 h (in vitro) was 80.5 µM, the “Bcl-xL-Bax interaction” value (Bcl-xL-Bax interactions) was “less affected” and the Bcl-xL expression (Bcl-xL) was “A similar trend was observed”.
